The values that follow come from patent publication US11466013B2 (Betta Pharmaceuticals Co., LTD, priority 2018, dated 2022).

The target in assay [1] is ERK2 (Homo sapiens, UniProt P28482). The assay is described as follows: Kinase assay (Caliper, FAM-labeled peptide), ERK2. Type of assay: biochemical. The procedure:
(§1) The compound was diluted to the desired concentration with DMSO, transferred 100 μL to a 96-well plate, and performed a gradient dilution 10 μL of compound from each well was taken and mixed with 90 μL of kinase buffer, and then transferred 5 μL from each well to a 384-well plate. Kinase and FAM-labeled peptide and ATP were added to 1× kinase alkaline buffer to obtain 2.5× enzyme solution and 2.5× peptide solution, 10 μL of 2.5× enzyme solution was added to the 384-well assay plate. After incubating for 10 minutes at room temperature, 10 μL of 2.5× peptide solution was added to the 384-well plate. After reacting for a specific time at […], 25 μL of termination buffer was added to stop reaction. After reading the collected data on Caliper, the data was converted to inhibition percentage. Inhibition percentage=(maximum value−conversion value)/(maximum value−minimum value)*100.
(§2) The “maximum” is the DMSO control, the “minimum” indicates the low control.
(§3) Graphpad Prism software was used to perform curve fitting and obtain IC50 value.

For assay [2], the target named is ERK1 (Homo sapiens, UniProt P27361). The assay is described as follows: Kinase assay (Caliper, FAM-labeled peptide), ERK1. It is filed as biochemical. The procedure:
as §1, §2, §3

ERK1, sequence (P27361 whole entry): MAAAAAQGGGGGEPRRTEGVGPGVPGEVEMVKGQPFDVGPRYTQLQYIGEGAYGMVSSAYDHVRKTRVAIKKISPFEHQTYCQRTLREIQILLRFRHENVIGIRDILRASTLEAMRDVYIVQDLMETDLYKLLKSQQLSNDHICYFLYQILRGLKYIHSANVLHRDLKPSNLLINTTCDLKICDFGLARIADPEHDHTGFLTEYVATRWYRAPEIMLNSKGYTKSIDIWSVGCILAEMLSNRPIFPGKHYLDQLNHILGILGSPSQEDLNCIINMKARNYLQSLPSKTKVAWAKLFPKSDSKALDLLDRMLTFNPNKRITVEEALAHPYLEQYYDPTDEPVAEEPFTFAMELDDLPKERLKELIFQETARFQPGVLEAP
ERK2, sequence (P28482 whole entry): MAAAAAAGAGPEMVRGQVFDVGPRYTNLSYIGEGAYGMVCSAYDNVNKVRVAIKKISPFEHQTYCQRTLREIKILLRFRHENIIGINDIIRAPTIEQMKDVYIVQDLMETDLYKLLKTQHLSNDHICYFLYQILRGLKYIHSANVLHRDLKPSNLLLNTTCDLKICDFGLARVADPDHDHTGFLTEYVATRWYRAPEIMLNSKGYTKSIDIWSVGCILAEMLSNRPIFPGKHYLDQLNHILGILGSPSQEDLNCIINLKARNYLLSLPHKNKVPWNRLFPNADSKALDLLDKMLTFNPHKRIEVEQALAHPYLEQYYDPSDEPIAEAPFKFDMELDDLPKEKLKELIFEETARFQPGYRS

The IC50 is the concentration at which inhibition is half-maximal. For the compound `COCC1Cn2cc(-c3cc(NC4CCN(C(C)=O)CC4)ncc3Cl)cc2C(=O)N1Cc1cc(F)ccc1CO` (stereo not shown) [Example 110, 7-(2-((1-acetylpiperidin-4-yl)amino)-5-chloropyridine-4-yl)-2-(5-fluoro-2-(hydroxymethyl)benzyl)-3-(methoxymethyl)-3,4-dihydropyrrolo[1,2-a] pyrazine-1(2H)-one], the IC50 in assay [1] stood at 0.7 nM; in assay [2], 0.6 nM.

With `COC[C@H]1Cn2cc(-c3cc(NC4CCOC4)ncc3Cl)cc2C(=O)N1Cc1cc(F)ccc1CO` (stereo partly drawn) [Example 61, (3R)-7-(5-chloro-2-((tetrahydrofuran-3-yl)amino)pyridine-4-yl)-2-(5-fluoro-2-(hydroxymethyl)benzyl)-3-(methoxymethyl)-3,4-dihydropyrrolo[1,2-a] pyrazine-1(2H)-one], the half-maximal inhibitory concentration (IC50) in assay [1] was 0.41 nM; in assay [2], 0.38 nM.

`CC(C)Nc1cc(-c2c[nH]c(C(=O)NCc3ccccc3CO)c2)c(Cl)cn1` [Example 1, 4-(5-chloro-2-(isopropylamino)pyridin-4-yl)-N-(2-(hydroxymethyl)benzyl)-1H-pyrrole-2-methyl amide]: the IC50 came out at 3.4 nM in assay [1] and 3 nM in assay [2].

Take `CC(C)Nc1cc(-c2cnc(C(=O)NCc3ccc(F)cc3CO)s2)c(Cl)cn1` [Example 4, 5-(5-chloro-2-(isopropylamino)pyridin-4-yl)-N-(4-fluoro-2-(hydroxymethyl)benzyl) thiazole-2-formamide]: the IC50 in assay [1] and in assay [2] was 1.8 nM each time.

`CC(C)Nc1cc(-c2cnc(C(=O)NCc3cccc(F)c3CO)s2)c(Cl)cn1` [Example 5, 5-(5-chloro-2-(isopropylamino)pyridin-4-yl)-N-(3-fluoro-2-(hydroxymethyl)benzyl) thiazole-2-formamide]: the IC50 amounted to 1.2 nM in assay [1] and 1.5 nM in assay [2].

In the case of `CC(C)Nc1cc(-c2cc3n(c2)CC(CO)CN(Cc2cc(F)ccc2CO)C3=O)c(Cl)cn1` (stereo not shown) [Example 42, 8-(5-chloro-2-(isopropylamino)pyridin-4-yl)-2-(5-fluoro-2-(hydroxymethyl)benzyl)-4-(hydroxymethyl)-2,3,4,5-tetrahydro-1H-pyrrolo[1,2-a][1,4]diazepine-1-one], the IC50 worked out at 1.6 nM in assay [1] and 2.5 nM in assay [2].

With `Cc1cnc(Nc2cccc3c2cnn3C)nc1-c1cc2n(c1)CCN(Cc1cc(F)ccc1CO)C2=O` [Example 141, 2-(5-fluoro-2-(hydroxymethyl)benzyl)-7-(5-methyl-2-((1-methyl-1h-indazole-4-yl)amino)pyrimidin-4-yl)-3,4-dihydropyrrolo[1,2-a] pyrazine-1(2H)-one], the results for the IC50 in assay [1] and in assay [2] were 0.87 nM and 0.93 nM, respectively.

As for `COCC1(CO)CN(Cc2cc(F)ccc2CO)C(=O)c2cc(-c3cc(NC(C)C)ncc3Cl)cn2C1` (stereo not shown) [Example 56, 8-(5-chloro-2-(isopropylamino)pyridin-4-yl)-2-(5-fluoro-2-(hydroxymethyl)benzyl)-4-(hydroxymethyl)-4-(methoxymethyl)-2,3,4,5-4,5-tetrahydro-1h-pyrrolo [1,2-a][1,4]diazepine-1-one], the IC50 turned out to be 0.64 nM in assay [1] and 0.95 nM in assay [2].

For the compound `Cc1cnc(NC2COC2)nc1-c1cc2n(c1)CCN(Cc1cc(F)ccc1CO)C2=O` [Example 32, 2-(5-Fluoro-2-(hydroxymethyl)benzyl)-7-(5-methyl-2-(oxetan-3-ylamino)pyrimidine-4-yl)-3,4-dihydropyrrolo[1,2-a]pyrazine-1(2H)-one], the IC50 was found to be 0.27 nM in assay [1] and 0.44 nM in assay [2].

Turning to `COC[C@H]1Cn2cc(-c3cc(NC4CC4)ncc3Cl)cc2C(=O)N1Cc1cc(F)ccc1CO` [Example 74, (R)-7-(5-chloro-2-(cyclopropylamino)pyridin-4-yl)-2-(5-fluoro-2-(hydroxymethyl)-benzyl)-3-(methoxymethyl)-3,4-dihydropyrrolo[1,2-a] pyrazine-1(2H)-one], the IC50 is 1.3 nM in assay [1] and 1.2 nM in assay [2].

For the compound `COC[C@H]1Cn2cc(-c3cc(NC4CC(F)(F)C4)ncc3Cl)cc2C(=O)N1Cc1cc(F)ccc1CO` [Example 63, (R)-7-(5-chloro-2-((3,3-difluorocyclobutyl)amino)pyridine-4-yl)-2-(5-fluoro-2-(hydroxymethyl)benzyl)-3-(methoxymethyl)-3,4-dihydropyrrolo[1,2-a] pyrazine-1(2H)-one], the figures for the IC50 in assay [1] and in assay [2] were 1.6 nM and 1.5 nM, respectively.

For the compound `Cc1cnc(Nc2ccc3c(cnn3C)c2)nc1-c1cc2n(c1)CCN(Cc1cc(F)ccc1CO)C2=O` [Example 134, 2-(5-fluoro-2-(hydroxymethyl)benzyl)-7-(5-methyl-2-((1-methyl-1h-indazole-5-yl)amino)pyrimidin-4-yl)-3,4-dihydropyrrolo[1,2-a] pyrazine-1(2H)-one], the IC50 in assay [1] and in assay [2] was 0.5 nM throughout.

As for `CC(C)Nc1cc(-c2cc3n(c2)CC2(COC(C)(C)OC2)CN(Cc2cc(F)ccc2CO)C3=O)c(Cl)cn1` [Example 28, 8-(5-chloro-2-(isopropylamino)pyridin-4-yl)-2-(5-fluoro-2-(hydroxymethyl)benzyl)-2′,2′-dimethyl-2,3-dihydro-1h,5h-spiro[pyrrolo [1,2-a][1,4]diazepine-4,5′-[1,3]dioxane]-1-one], the IC50 in assay [1] was determined as 1.6 nM; in assay [2], 0.9 nM.

In the case of `COC[C@H]1Cn2cc(-c3cc(Nc4ccn(CC(F)F)n4)ncc3Cl)cc2C(=O)N1Cc1cc(F)ccc1CO` [Example 114, (R)-7-(5-chloro-2-((1-(2,2-difluoroethyl)-1h-pyrazole-3-yl)amino)pyridine-4-yl)-2-(5-fluoro-2-(hydroxymethyl)benzyl)-3-(methoxymethyl)-3,4-dihydropyrrolo[1,2-a] pyrazine-1(2H)-one], the IC50 in assay [1] and in assay [2] was 1.3 nM throughout.

Turning to `O=C1c2cc(-c3cc(NC4CC(F)(F)C4)ncc3Cl)cn2CCN1Cc1cc(F)ccc1CO` [Example 128, 7-(5-chloro-2-((3,3-difluorocyclobutyl)amino)pyridine-4-yl)-2-(5-fluoro-2 (hydroxymethyl)benzyl)-3,4-dihydropyrrolo[1,2-a] pyrazine-1(2H)-one], the IC50 was 0.89 nM in assay [1] and 0.65 nM in assay [2].

As to `CC(C)Nc1cc(-c2cc3n(c2)C[C@H](CO)N(Cc2cc(F)ccc2CO)C3=O)c(Cl)cn1` [Example 59, (R)-7-(5-chloro-2-(isopropylamino)pyridin-4-yl)-2-(5-fluoro-2-(hydroxymethyl)benzyl)-3-(hydroxymethyl)-3,4-dihydropyrrolo[1,2-a] pyrazine-1(2H)-one], the IC50 in assay [1] was determined as 0.49 nM; in assay [2] it was 0.51 nM.

As for `CC(C)Nc1cc(-c2cc3n(c2)CC2(CN(C)C2)CN(Cc2ccccc2CO)C3=O)c(Cl)cn1` [Example 25], the IC50 in assay [1] is 0.84 nM; in assay [2], 1.3 nM.

Turning to `COC[C@H]1Cn2cc(-c3cc(NC(C)C)ncc3Cl)cc2C(=O)N1Cc1cc(F)ccc1CO` [Example 34, (R)-7-(5-chloro-2-(isopropylamino)pyridin-4-yl)-2-(5-fluoro-2-(hydroxymethyl)benzyl)-3-(methoxymethyl)-3,4-dihydropyrrolo[1,2-a]pyrazine-1(2H)-one], the IC50 in assay [1] was 0.4 nM; in assay [2], 0.2 nM.

`COC[C@H]1Cn2cc(-c3cc(NC4CCC4)ncc3Cl)cc2C(=O)N1Cc1cc(F)ccc1CO` [Example 70, (R)-7-(5-chloro-2-(cyclobutylamino)pyridin-4-yl)-2-(5-fluoro-2-(hydroxymethyl)benzyl)-3-(methoxymethyl)-3,4-dihydropyrrolo[1,2-a] pyrazine-1(2H)-one]: the figures for the IC50 in assay [1] and in assay [2] were 2 nM and 1.8 nM, respectively.

As to `COC[C@H]1Cn2cc(-c3cc(NC(C)C)ncc3Cl)nc2C(=O)N1Cc1cc(F)ccc1CO` [Example 46, (R)-2-(5-chloro-2-(isopropylamino)pyridin-4-yl)-7-(5-fluoro-2-(hydroxymethyl)benzyl)-6-(methoxymethyl)-6,7-dihydroimidazo[1,2-a]pyrazine-8-(5H)-one], the concentration for half-maximal inhibition (IC50) in assay [1] is 1.4 nM; in assay [2] it was 2.8 nM.

As for `Cc1cnc(Nc2cccc(C)c2C)nc1-c1cc2n(c1)CCN(Cc1cc(F)ccc1CO)C2=O` [Example 136, 7-(2-((2,3-dimethylphenyl)amino)-5-methylpyrimidin-4-yl)-2-(5-fluoro-2-(hydroxymethyl)benzyl)-3,4-dihydropyrrolo[1,2-a] pyrazine-1(2H)-one], the values for the IC50 in assay [1] and in assay [2] were 0.4 nM and 0.9 nM, respectively.

In the case of `COC[C@H]1Cn2cc(-c3cc(NC4CCC(OC)CC4)ncc3Cl)cc2C(=O)N1Cc1cc(F)ccc1CO` (stereo partly drawn) [Example 111, (R)-7-(5-chloro-2-((4-methoxycyclohexyl)amino)pyridine-4-yl)-2-(5-fluoro-2-(hydroxymethyl)benzyl)-3-(methoxymethyl)-3,4-dihydropyrrolo[1,2-a] pyrazine-1(2H)-one], the IC50 in assay [1] and in assay [2] was 0.9 nM in each case.

For the compound `CC(C)Nc1cc(-c2cc3n(c2)CC2(COC(C)(C)OC2)CN(Cc2ccccc2CO)C3=O)c(Cl)cn1` [Example 26, 8-(5-Chloro-2-(isopropylamino)pyridin-4-yl)-2-(2-(hydroxymethyl)benzyl)-2′,2′-dimethyl-2,3-dihydro-1H,5H-spiro[pyrrolo[1,2-a][1,4]diazepine-4,5′-[1,3]dioxane]-1-one], the IC50 in assay [1] worked out at 1.4 nM; in assay [2], 1.3 nM.
